Laboratory results: patent US8946426B2, “Substituted bicyclic heterocyclic compounds as gamma secretase modulators” (Janssen Pharmaceuticals, Inc., priority 2009, dated 2015)

Key:
Assay type in all cases: cell-based
Aβtotal [1] = test: Method 1: Aβtotal sandwich ELISA in supernatant of SKNBE2 cells carrying APP 695-wild type (Tables 7a, 7b)
Description: (§1) Screening was carried out using SKNBE2 cells carrying the APP 695-wild type, grown in Dulbecco's Modified Eagle's Medium/Nutrient mixture F-12 (DMEM/NUT-mix F-12) (HAM) provided by Gibco (cat no. 31330-38) containing 5% Serum/Fe supplemented with 1% non-essential amino acids. Cells were grown to near confluency.
The screening was performed using the assay as described in Citron et al (1997) Nature Medicine 3: 67. Briefly, cells were plated in a 96-well plate at about 10^5 cells/ml one day prior to addition of compounds. Compounds were added to the cells in Ultraculture (Lonza, BE12-725F) supplemented with 1% glutamine (Invitrogen, 25030-024) for 18 Hours. The media were assayed by two sandwich ELISAs, for Aβ42 and Aβtotal. Toxicity of the compounds was assayed by WST-1 cell proliferation reagent (Roche, 1 644 807) according to the manufacturer's protocol.
To quantify the amount of Aβtotal in the cell supernatant, samples and standards were added to a 6E10-coated plate. The plate was allowed to incubate overnight at 4° C. in order to allow formation of the antibody-amyloid complex. Following this incubation and subsequent wash steps a selective anti-Aβ-antibody conjugate (biotinylated 4G8) was added and incubated for a minimum of 1 Hour in order to allow formation of the antibody-Amyloid-antibody-complex. After incubation and appropriate wash steps, a Streptavidine-Peroxidase-Conjugate was added, followed 30 minutes later by an addition of Quanta Blu fluorogenic peroxidase substrate according to the manufacturer's instructions (Pierce Corp., Rockford, Ill.).
To obtain the values reported in Table 7a, the sigmoidal dose response curves were analysed by computerised curve-fitting, with percent of inhibition plotted against compound concentration. A 4-parameter equation (model 205) in XLfit was used to determine the IC50. The top and the bottom of the curve were fixed to 100 and 0, respectively, and the hill slope was fixed to 1. The IC50 represents the concentration of a compound that is required for inhibiting a biological effect by 50% (Here, it is the concentration where Aβ peptide level is reduced by 50%).
(§2) To obtain the values reported in Table 7b, the data were calculated as percentage of the maximum amount of amyloid Beta 42 measured in the absence of the test compound. The sigmoidal dose response curves were analyzed using non-linear regression analysis with percentage of the control plotted against the log concentration of the compound. A 4-parameter equation was used to determine the IC50. The values reported in Table 7b are averaged IC50 values.

Aβ42 [2] = test: Method 2: Aβ42 Alphalisa in supernatant of SKNBE2 cells carrying APP 695-wild type (Table 7c); details: Method 2, Alphalisa, overnight incubation
Description: as §1, with “Invitrogen” for “Gibco”, “10371-029)” for “31330-38)”, “acids, 1-glutamine 2 mM, Hepes 15 mM, penicillin 50 U/ml (units/ml) en streptomycin 50 μg/ml.” for “acids.”
(§3) The screening was performed using a modification of the assay as described in Citron et al (1997) Nature Medicine 3: 67. Briefly, cells were plated in a 384-well plate at 10^4 cells/well in Ultraculture (Lonza, BE12-725F) supplemented with 1% glutamine (Invitrogen, 25030-024), 1% non-essential amino acid (NEAA), penicillin 50 U/ml en streptomycin 50 μg/ml in the presence of test compound at different test concentrations. The cell/compound mixture was incubated overnight at 37° C., 5% CO2. The next day the media were assayed by two sandwich immuno-assays, for Aβ42 and Aβtotal.
(§4) Aβtotal and Aβ42 concentrations were quantified in the cell supernatant using the Aphalisa technology (Perkin Elmer). Alphalisa is a sandwich assay using biotinylated antibody attached to streptavidin coated donorbeads and antibody conjugated to acceptor beads. In the presence of antigen, the beads come into close proximity. The excitation of the donor beads provokes the release of singlet oxygen molecules that trigger a cascade of energy transfer in the acceptor beads, resulting in light emission. To quantify the amount of Aβ42 in the cell supernatant, monoclonal antibody specific to the C-terminus of Aβ42 (JRF/cAβ42/26) was coupled to the receptor beads and biotinylated antibody specific to the N-terminus of Aβ (JRF/AβN/25) was used to react with the donor beads. To quantify the amount of Aβtotal in the cell supernatant, monoclonal antibody specific to the N-terminus of Aβ (JRF/AβN/25) was coupled to the receptor beads and biotinylated antibody specific to the mid region of Aβ (biotinylated 4G8) was used to react with the donor beads.
as §2, with “7c,” for “7b,”, “IC50.” for “IC50. The values reported in Table 7b are averaged IC50 values.”

Aβtotal [3] = test: Method 2: Aβtotal Alphalisa in supernatant of SKNBE2 cells carrying APP 695-wild type (Table 7c); details: Method 2, Alphalisa, overnight incubation
Description: as §1, with “Invitrogen” for “Gibco”, “10371-029)” for “31330-38)”, “acids, 1-glutamine 2 mM, Hepes 15 mM, penicillin 50 U/ml (units/ml) en streptomycin 50 μg/ml.” for “acids.”
as §3, §4
as §2, with “7c,” for “7b,”, “IC50.” for “IC50. The values reported in Table 7b are averaged IC50 values.”

Aβ42 [4] = test: Method 1: Aβ42 sandwich ELISA in supernatant of SKNBE2 cells carrying APP 695-wild type (Tables 7a, 7b)
How it was run: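 IC50 values were derived with a 4-parameter equation, fitting either percent inhibition or percent of compound-free Aβ42 as the control. The Aβ42 came from supernatants of APP695 wild-type SKNBE2 cells treated for 18 hours. It was measured by ELISA with anti-Aβ42 capture, biotinylated 3D6 and TMB absorbance at 450 nm.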

[5] = Table 7b, averaged IC50, non-linear regression of percentage of control vs log concentration, 4-parameter equation
[6] = Table 7a, SKNBE2 cells, compounds 18 h, XLfit 4-parameter fit of percent inhibition, top/bottom fixed to 100/0, hill slope 1

Structure (SMILES)	IC50 (Aβtotal [1]; [5]) [nM]	IC50 (Aβ42 [2]) [nM]	IC50 (Aβtotal [3]) [nM]	IC50 (Aβ42 [4]; [5]) [nM]	IC50 (Aβtotal [1]; [6]) [nM]	IC50 (Aβ42 [4]; [6]) [nM]
Cc1ncc(-c2ccc(Nc3cccc4c3nc(C(C)c3ccc(Cl)cc3)n4C)cn2)o1 (racemic) [Compound 87]	> 10000	288	9120	251	–	–
Cc1ncc(-c2ccc(Nc3nccc4c3nc(-c3ccc(F)cc3)n4C(C)C)cc2)o1 [Compound 26]	> 30000	191	> 10000	871	–	–
Cc1ncoc1-c1ccc(Nc2cccc3c2nc(-c2ccc(F)cc2)n3C)cn1 [Compound 35]	–	214	> 10000	89	> 3000	90
Cc1ncc(-c2ccc(Nc3cccn4c(C)c(-c5ccccc5Cl)nc34)cc2)o1 [Compound 49]	> 3000	40	> 10000	20	> 3000	21
Cc1ncoc1-c1ccc(Nc2cccc3c2nc(-c2ccc(F)cc2)n3C(C)C)cc1F [Compound 65]	> 3000	117	> 10000	83	–	–
Cc1ncc(-c2ccc(Nc3cccc4c3nc(C3(c5ccc(Cl)cc5)CC3)n4C)cn2)o1 [Compound 88]	> 10000	58	8910	66	–	–
Cc1cc2c(nc(-c3cccc(Cl)c3)n2C)c(Nc2ccc(-c3ocnc3C)nc2)n1 [Compound 111]	> 10000	204	> 10000	339	–	–
COc1cc(Nc2cc(F)cn3cc(C4CCOCC4)nc23)ccc1-c1ocnc1C [Compound 163]	> 10000	158	> 10000	245	–	–
Cc1ncc(-c2ccc(Nc3cccn4c(C)c(-c5ccccc5C(F)(F)F)nc34)cn2)o1 [Compound 167]	> 3000	18	> 10000	21	–	–
Cc1ncc(-c2ccc(Nc3cc(F)cn4cc(-c5ccc(F)cc5C)nc34)cn2)o1 [Compound 171]	> 3000	38	> 10000	20	–	–
Cc1ncc(-c2ccc(Nc3cccn4c(C)c(-c5ccccc5Cl)nc34)cn2)o1 [Compound 173]	> 3000	7	> 10000	9	–	–
COc1cc(Nc2cc(C#N)cn3cc(CC(C)C)nc23)ccc1-c1ocnc1C [Compound 202]	> 3000	245	8510	135	–	–

The remaining compounds from weak to strong by IC50 (Aβ42 [2]), led by results:

IC50 (Aβtotal [1]; [5]) [nM]	IC50 (Aβ42 [2]) [nM]	IC50 (Aβtotal [3]) [nM]	IC50 (Aβ42 [4]; [5]) [nM]	IC50 (Aβtotal [1]; [6]) [nM]	IC50 (Aβ42 [4]; [6]) [nM]	Structure (SMILES)
9330	1320	6760	1410	–	–	Cc1ncoc1-c1ccc(Nc2cccn3cc(CC4CCOCC4)nc23)cn1 [Compound 164]
> 3000	661	> 10000	2090	–	–	Cc1cn2cccc(Nc3ccc(-c4cnc(C)o4)nc3)c2n1 [Compound 172]
> 3000	363	> 10000	66	–	–	Cc1ncc(-c2ccc(Nc3nccc4c3nc(-c3ccccc3Cl)n4C)cn2)o1 [Compound 85]
> 3000	76	> 10000	28	–	–	Cc1nc(C)c(-c2ccc(Nc3cc(F)cc4c3nc(-c3ccccc3Cl)n4C)cn2)o1 [Compound 79]
> 3000	72	> 10000	20	> 3000	38	Cc1ncc(-c2ccc(Nc3cccn4cc(-c5cc(C(F)(F)F)ccc5C)nc34)cc2)o1 [Compound 50]
> 3000	52	> 10000	19	–	–	Cc1ncc(-c2ccc(Nc3cc(C#N)cc4c3nc(-c3ccc(F)cc3)n4C)cn2)o1 [Compound 86]
> 3000	49	> 10000	37	–	–	Cc1nc(C)c(-c2ccc(Nc3cccc4c3nc(-c3ccc(F)cc3)n4C(C)C)cn2)o1 [Compound 82]
> 3000	25	> 10000	18	–	–	Cc1ncc(-c2ccc(Nc3cc(F)cc4c3nc(-c3ccccc3Cl)n4C)cn2)o1 [Compound 107]
> 3000	22	> 10000	10	–	–	COCCc1c(-c2ccc(F)cc2)nc2c(Nc3ccc(-c4cnc(C)o4)c(OC)c3)cccn12 [Compound 174]
> 3000	10	> 10000	5	–	–	COc1cc(Nc2cc(C(C)C)nc3c2nc(-c2ccc(F)cc2)n3C)ccc1-c1cnc(C)o1 [Compound 190]
